We go through 3 compounds from patent US20210177795A1 (priority 2017, published 2021).

Data set [1] deals with Udorn influenza virus (A/Udorn/307/72 (H3N2)). The arrangement: species or system C57BL/6 mice. The following applies: mouse, in vivo.
Another data set deals with IL-6. Set-up: species or system C57BL/6 mice. As to conditions: mouse, in vivo.
In another data set the test system is MCP-1. The arrangement: species or system C57BL/6 mice. The following applies: mouse, in vivo.
In the next data set the test system is IL-10. The arrangement: species or system C57BL/6 mice. The following applies: mouse, in vivo.
Another data set concerns KC. Set-up: species or system C57BL/6 mice. As to conditions: mouse, in vivo.
For a further data set, the system named is RANTES. The arrangement: species or system C57BL/6 mice. The following applies: mouse, in vivo.
Another data set concerns cytokines/chemokines. The arrangement: species or system C57BL/6 mice. The following applies: mouse, in vivo.
The conditions of data set [2]: mouse, in vivo.

Entries after “also recorded” stand apart in the source; their conditions may differ.

With PEG-[Arg]4-Ser-Ser-Pam2Cys [INNA-002], in data set [1], the “antiviral effect across doses” value is reported as “dose-dependent antiviral-effect” and the “progression of influenza virus to the lungs” value is “inhibited; also recorded: partial inhibition”.
As for `CCC(=O)OCC(CSCC(N)C(=O)NC(CO)C(=O)NCCOCC(=O)NCC(N)=O)OC(=O)CC` (stereo not drawn) [INNA-006, PEG-S-Pam2Cys], in the data set on IL-6, the “IL-6 in nasal turbinates, fold lower with 3 doses vs single dose” value is listed as “approximately 25 fold” and the “fold increase in IL-6 levels in nasal turbinates vs saline” value is 98 fold. Further, in the data set on MCP-1, the “MCP-1 level in nasal turbinates” value was about 66 pg/mL and the “fold increase of MCP-1 in nasal turbinates vs saline” value is given as 7 fold. Besides, in data set [1], the “progression of influenza virus to the lungs” value is reported as “significantly inhibited; also recorded: partial inhibition”. For the same compound, in the data set on IL-10, the “IL-10 level in nasal turbinates” value is about 17 pg/mL and the “fold increase of IL-10 in nasal turbinates vs saline” value is 2 fold. In the data set with KC, the “KC in the lungs compared to the saline control” value is “no significance”, the “KC level in lungs” value is about 14 pg/mL, the “KC level in nasal turbinates” value is about 83 pg/mL and the “KC levels in the lung” value is about 16.3 pg/mL. For the same compound, in the data set with KC, the “fold increase of KC in nasal turbinates vs saline” value amounted to 2 fold, the “fold increase of KC secretion in lungs compared to INNA-003” value is recorded as 2 fold and the “fold increase of KC secretion in lungs compared to saline control” value was 3 fold. For the same compound, in the data set on RANTES, the “RANTES level in nasal turbinates” value was about 141 pg/mL, the “RANTES secretion in nasal turbinates compared to INNA-003” value is listed as “increased RANTES secretion” and the “fold increase of RANTES in nasal turbinates vs saline” value was 1.9 fold. Also, in the data set on cytokines/chemokines, the “cytokine/chemokine levels in nasal turbinates, lungs and sera, 3 repeat doses vs single dose” value was “marked decrease”; the “cytokine/chemokine profiles in lungs, trachea and sera, single vs triple dose regimes” value was “no discernible differences”; the “proinflammatory cytokines and chemokines including IL-6, KC & MCP-1 in nasal turbinates vs saline” value is reported as “increases were detected in a dose-dependent manner”. Moreover, the greatest weight loss in data set [2] is 1.87%±1.33%.
Regarding `CCCCCCCCCCCCCCCC(=O)OCC(CSC[C@H](N)C(=O)N[C@@H](CO)C(=O)N[C@@H](CO)C(=O)NCCOCCOCCOCCOCCOCCOCCOCCOCCOCCOCCOCCOCCC(=O)NCC(N)=O)OC(=O)CCCCCCCCCCCCCCC` (stereo partly drawn) [INNA-003, PEG-S—S-Pam2Cys], in data set [2], the greatest weight loss is 1.89%±1.15%.
